Structures are written as SMILES.

The subject of one data set is ER/IL-6. Put plainly: Endothelial Cell ER/IL-6 Assay, IL-6 promoter luciferase (Table 2). It counts as cell-based, human. The settings on record: Homo sapiens, HAECT1, ERα infected HAECT-1 cells, IL-1β; for Emax: read-out: IL6 luc % Efficacy; for IC50: read-out: IL6 luc IC50. A digest of the protocol: (§1)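 One lysate gave both read-outs: luciferase for ER/IL-6 and A340 rate after CK reagent for CK, with four-parameter logistic IC50/EC50. Cells were HAECT-1 aortic endothelial cells carrying adenoviral human ERα (or none), dosed […] at 34 °C from 2× stocks containing 2 ng/ml IL-1β and IL-6(1250 bp)-Luc adenovirus.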

Data set [1] concerns CK. The data set can be described thus: Creatine kinase assay in ERα infected HAECT-1 cells (Table 2). It counts as cell-based, human. The settings on record: Homo sapiens; for Emax: HAECT1, read-out: CK % Efficacy. A digest of the protocol: as §1
Another data set has as its system Creatine Kinase. The data set can be described thus: Creatine kinase expression in Ad5-wt-ERα infected HAECT-1 cells (Table 1). It counts as cell-based, human. The settings on record: Homo sapiens, HAECT1, read-out: Creatine Kinase EC50. How it is done:
T-175 flasks of 100% confluent HAECT-1 cells (immortalized human aortic endothelial cells) were washed with 8 mL of HBSS (HEPES buffered saline solution) and infected for four hours with 6 mL of a 1:10 dilution of Ad5-wt-hERα virus (an adenovirus transfection vector that mediates CMV promoter driven expression of human ERα) in phenol red free Endothelial Cell Basal medium (Clonetics, San Diego Calif., Catalog # CC-3129) containing 0.25% bovine serum albumin (EBM-BSA). After four hours, cells were washed with EBM-BSA and incubated overnight in the same medium. Following overnight incubation, cells were washed with EBM-BSA and infected for 2 hours with 6 mL of a 1:10 dilution of Ad5-3x(NF-κB).Luc virus (Adenovirus luciferase expression vector driven by 3 repeats of the MHC NF-κb site 5′ to the thymidine kinase promoter) in EBM-BSA. […]
ERα infected HAECT-1 cells or control cells were thawed, diluted 42× in warm EBM-BSA, plated into 96-well plates at 0.1 mL/well and incubated for 4 hours at 34° C. […] Luciferase was determined on a Wallac Victor Luminometer (Gaithersburg, Md.) using 10 μL of lysate and mixing with 100 μL of Promega Luciferase Assay reagent. Creatine kinase was determined from the rate of increase in A340 following addition of 100 μL of CK assay reagent (Sigma, cat. No 47-10) to the remainder of the cell lysate. […]

In data set [2] the test system is CK. The data set can be described thus: CK activity in lysate of ERα expressing HAECT-1 cells. The settings on record: FIG. 1D. It counts as cell-based, human. How it is done:
(A) The effect of compound 67 on NF-κB mediated luciferase reporter activity in HAECT-1 cells expressing ERα. […] (C) The effect of compound 67 on the human IL-6 promoter luciferase reporter activity in HAECT-1 cells expressing either ERα (squares) or ERβ (diamonds). (D) The remaining lysate from (A) was used to determine CK activity.
(§2) HAECT-1 cells (Chadwick C C, et al., Proc Natl Acad Sciences, 2005, 102(7): 2543-2548) were cultured in EGM (GIBCO, Rockville, Md.) containing 10% FBS, 1% GlutaMAX and 0.1% Antimycotic-Antibiotic in Falcon T-175 culture flasks at 34° C. in 5% CO2 and infected for four hours with Ad5-wt-ER virus. After overnight recovery, the cells were infected for 2 hours with the Ad5-3x(NFκB).Luc or Ad5-IL6.Luc virus. Compound 67 and 2 ng/ml IL-1 were added to the cells for 15-20 h and the cell lysate was assayed for luciferase activity and evaluated for CK expression (Stanbio Laboratories, Texas). The values are reported as mean±SEM with n=4 from at least 3 independent experiments.

A further data set relates to NF-κB. The data set can be described thus: IL-1β stimulated NF-κB reporter activity in ERα expressing HAECT-1 cells. It counts as cell-based, human. The settings on record: 1 μM ICI, 1 μM compound 67, FIG. 1B. How it is done: as §2

Turning to `COc1ccccc1[C@H](c1cccc2ccccc12)[C@@](C)(C#N)C(=O)N1CCN(CCN(C)C)CC1` [Example 216, (2S)-3-{4-[2-(dimethylamino)ethyl]piperazin-1-yl}-2-[(S)-(2-methoxyphenyl)(1-naphthyl)methyl]-2-methyl-3-oxopropanenitrile], the melting point was in the range of 84 to 85 °C. In addition, in the data set with ER/IL-6, the Emax is 51%. Moreover, the Emax in the data set with CK [1] was -21%.

`COC[C@](C#N)(C(=O)N1CCN(c2cnccn2)CC1)[C@H](c1ccccc1OC)c1cccc2ccccc12` [Example 223, (2S,3S)-2-(methoxymethyl)-3-(2-methoxyphenyl)-3-(1-naphthyl)-2-[(4-pyrazin-2-ylpiperazin-1-yl)carbonyl]propanenitrile] came in with a melting point of 149 °C. Moreover, in the data set on ER/IL-6, the Emax stood at 154% and the IC50 was found to be 38 nM. In the data set with CK [1] (HAECT1), this molecule showed an EC50 of 318 nM. For the same molecule, in the data set with CK [1], the Emax came out at 24%.

As for `COC[C@@](C#N)(C(=O)N1CCN(c2cnccn2)CC1)[C@@H](c1ccccc1OC)c1cccc2ccccc12` [Example 224, (2R,3R)-2-(methoxymethyl)-3-(2-methoxyphenyl)-3-(1-naphthyl)-2-[(4-pyrazin-2-ylpiperazin-1-yl)carbonyl]propanenitrile], the melting point came to 150 °C. In addition, in the data set on ER/IL-6, the Emax was determined as 77% and the IC50 is 832 nM. The Emax in the data set on CK [1] is -14%.

As to `C[C@]12CC[C@@H]3c4ccc(O)cc4CC[C@H]3[C@@H]1CC[C@@H]2O` [Example E2, 17β-estradiol, reference compound], the EC50 amounted to 5.8 nM in the data set with Creatine Kinase and 2 nM in the data set with CK [2] (Homo sapiens, HAECT1). For the same molecule, the “stimulation of CK activity” value in the data set on CK [2] is on record as “approximately 1.7 fold”.

Take `C[C@]12CC[C@@H]3c4ccc(O)cc4C[C@@H](CCCCCCCCC[S+]([O-])CCCC(F)(F)C(F)(F)F)[C@H]3[C@@H]1CC[C@@H]2O` (stereo partly shown) [ICI 182,780, reference compound]: the “antagonism of the activity of compound 67 on NF-κB reporter” value in the data set with NF-κB was “effectively antagonized”.

One may read the melting point as the temperature of the solid-liquid transition. A word on the IC50: it is the concentration at which inhibition is half-maximal. What is called EC50 is the concentration giving half of the maximal effect.
